Data on six molecules can be found in article PMC6874883 (Biochemistry, 2019).

Values joined by “and” are separate entries in the source; they are usually repeats but may differ in a detail not shown here. Equal entries are not always repeated. Some results are limits rather than exact numbers.

One data set addresses T1, procaspase-6 (Homo sapiens, UniProt P55212).
T1 sequence (P55212 1-293): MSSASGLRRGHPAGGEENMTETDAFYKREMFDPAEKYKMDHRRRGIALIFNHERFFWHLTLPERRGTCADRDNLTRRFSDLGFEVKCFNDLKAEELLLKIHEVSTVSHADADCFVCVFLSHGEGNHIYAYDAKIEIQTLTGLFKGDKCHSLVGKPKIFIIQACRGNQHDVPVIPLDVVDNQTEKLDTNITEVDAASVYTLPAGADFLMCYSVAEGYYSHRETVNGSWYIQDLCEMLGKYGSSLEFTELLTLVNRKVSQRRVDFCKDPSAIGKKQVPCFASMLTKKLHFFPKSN
The data set is classed as binding.

A further data set addresses T2, caspase-6 ΔN D179CT (Homo sapiens, UniProt P55212).
T2 sequence (P55212 24-179): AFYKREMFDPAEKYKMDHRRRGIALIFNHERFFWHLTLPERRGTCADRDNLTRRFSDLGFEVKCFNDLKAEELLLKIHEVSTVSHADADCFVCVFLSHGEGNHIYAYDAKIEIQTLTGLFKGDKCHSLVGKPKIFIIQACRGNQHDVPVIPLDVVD
T2 sequence (P55212 194-293): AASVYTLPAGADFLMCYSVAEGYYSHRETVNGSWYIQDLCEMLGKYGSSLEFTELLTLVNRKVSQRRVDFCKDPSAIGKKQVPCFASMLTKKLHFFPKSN
Briefly: Effect of ATP on the activity of cleaved, active caspase-6. The data set is classed as biochemical. Conditions: increasing ATP concentrations (0-40 mM), 1.5 h, 37 °C, 60 μM VEID-AMC.

Data set [1] has as its target T3, procaspase-6, Caspase-6 FL N-terminally (His)6 (Homo sapiens, UniProt P55212).
T3 sequence (P55212 1-293): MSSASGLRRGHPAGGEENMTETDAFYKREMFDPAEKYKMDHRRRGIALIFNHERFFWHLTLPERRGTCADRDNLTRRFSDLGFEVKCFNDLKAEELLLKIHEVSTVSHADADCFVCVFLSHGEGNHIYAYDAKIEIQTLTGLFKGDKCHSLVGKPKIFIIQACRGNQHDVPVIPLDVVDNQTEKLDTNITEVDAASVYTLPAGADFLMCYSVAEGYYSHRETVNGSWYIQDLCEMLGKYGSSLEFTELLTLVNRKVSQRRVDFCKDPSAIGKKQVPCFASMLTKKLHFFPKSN
The data set can be described thus: biochemical.

For data set [2], the target named is procaspase-6 (inactive C163S zymogen). Conditions: SPR; cited from earlier work.
For a further data set, the target named is T4, procaspase-6 C163S (Homo sapiens, UniProt P55212, C163S).
T4 sequence (P55212 1-293 C163S): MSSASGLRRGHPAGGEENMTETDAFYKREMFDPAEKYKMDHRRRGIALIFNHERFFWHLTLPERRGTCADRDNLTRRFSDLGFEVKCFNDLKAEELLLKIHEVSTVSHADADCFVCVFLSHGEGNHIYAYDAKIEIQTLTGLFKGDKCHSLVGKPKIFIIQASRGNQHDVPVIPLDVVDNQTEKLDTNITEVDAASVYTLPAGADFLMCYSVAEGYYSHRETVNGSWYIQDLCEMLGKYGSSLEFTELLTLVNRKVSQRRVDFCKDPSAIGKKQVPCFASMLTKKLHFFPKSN
Briefly: ATPAc labeling of K133, C163S variant expressed in E. coli. The data set is classed as binding. Conditions: full-length zymogen; defined as 100%.

The target in another data set is T5, procaspase-6 Y198A (Homo sapiens, UniProt P55212, Y198A).
T5 sequence (P55212 24-179): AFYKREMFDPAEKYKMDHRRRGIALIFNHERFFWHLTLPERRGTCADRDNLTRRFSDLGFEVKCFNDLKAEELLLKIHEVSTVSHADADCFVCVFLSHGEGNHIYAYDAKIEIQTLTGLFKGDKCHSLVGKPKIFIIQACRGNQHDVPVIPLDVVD
T5 sequence (P55212 194-293 Y198A): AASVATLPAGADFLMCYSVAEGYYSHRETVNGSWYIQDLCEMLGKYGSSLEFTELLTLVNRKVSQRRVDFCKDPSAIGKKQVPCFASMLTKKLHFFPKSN
The data set can be described thus: ATPAc labeling of K133, Y198A variant expressed in E. coli. The data set is classed as binding. Conditions: zymogen processed to mature Y198A caspase-6; relative to C163S = 100%.

Another data set has as its target T6, procaspase-6 Y198A/C163S (Homo sapiens, UniProt P55212, C163S/Y198A).
T6 sequence (P55212 1-293 C163S/Y198A): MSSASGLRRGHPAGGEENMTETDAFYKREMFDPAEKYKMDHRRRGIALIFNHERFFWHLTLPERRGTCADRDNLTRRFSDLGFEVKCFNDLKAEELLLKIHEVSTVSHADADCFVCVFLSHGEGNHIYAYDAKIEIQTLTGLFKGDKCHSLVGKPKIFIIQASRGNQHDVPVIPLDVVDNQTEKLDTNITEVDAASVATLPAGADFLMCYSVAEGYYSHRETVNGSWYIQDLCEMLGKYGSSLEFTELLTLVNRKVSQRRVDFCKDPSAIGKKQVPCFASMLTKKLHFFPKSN
Briefly: ATPAc labeling of K133, Y198A/C163S variant expressed in E. coli. Format: binding. Conditions: full-length procaspase-6; relative to C163S = 100%.

Another data set deals with T7, caspase-6 (Homo sapiens, UniProt P55212).
T7 sequence (P55212 24-179): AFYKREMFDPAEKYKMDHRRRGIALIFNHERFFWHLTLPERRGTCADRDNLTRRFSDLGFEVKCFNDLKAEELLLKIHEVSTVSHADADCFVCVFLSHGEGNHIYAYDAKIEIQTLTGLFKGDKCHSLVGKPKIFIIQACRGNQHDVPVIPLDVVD
T7 sequence (P55212 194-293): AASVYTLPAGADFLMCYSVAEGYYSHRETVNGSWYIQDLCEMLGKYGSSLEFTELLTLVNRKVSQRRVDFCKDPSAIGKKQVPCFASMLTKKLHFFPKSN
Briefly: Caspase activity assay, kinetic parameters with VEID-AMC substrate. The data set is classed as biochemical. The following applies: 100 nM enzyme, VEID-AMC 0-500 μM, 37 °C.

On to `Nc1ncnc2c1ncn2[C@@H]1O[C@H](COP(=O)(O)OP(=O)(O)OP(=O)(O)O)[C@@H](O)[C@H]1O` [ATP, adenosine triphosphate], for which, at procaspase-6, the IC50 (commonly the concentration that inhibits the measured activity by half) was in the range of 1 to 3 mM; the Ki (as a rule, the dissociation constant of the complex between target and ligand, obtained from inhibition or displacement) was ~2 mM. Besides, at caspase-6 ΔN D179CT, the “activity of mature caspase-6” value is reported as “not affected”. For the same molecule, the IC50 in data set [1] is 19 ± 0.8 mM.

Regarding `Nc1nc2c(ncn2[C@@H]2O[C@H](COP(=O)(O)OP(=O)(O)OP(=O)(O)O)[C@@H](O)[C@H]2O)c(=O)[nH]1` [GTP, guanosine triphosphate], the “inhibition of K133 acylation by acyl phosphate probes” value on procaspase-6 (resting Jurkat lysates pretreated 15 min with nucleotide (5 mM)) was “inhibited”.

Take `Nc1cc2ccccc2c(O)n1` [compound 3, 3-aminoisoquinolin-1-ol]: the IC50 against procaspase-6 is > 1 mM. Moreover, in data set [2], the Kd (as a rule, the free concentration of one partner at which half of the binding sites on the other are occupied at equilibrium, for simple one-to-one binding) was 0.0018 mM and ~0.0018 mM.

Take `Nc1ncnc2c1ncn2[C@H]1C[C@H](O)[C@@H](COP(=O)(O)OP(=O)(O)OP(=O)(O)O)O1` [dATP]: on procaspase-6 (immunoblot experiment, at ≤100 mM), the “inhibition of probe acylation (immunoblot)” value is recorded as “no significant inhibition”.

“desthiobiotin acyl phosphate of ATP [ATPAc]”: the figures for the “acylation of K133” value on procaspase-6 C163S, on procaspase-6 Y198A and on procaspase-6 Y198A/C163S were 100%, 1.9% and 1.7%, respectively.

B1: Y198A: mature active caspase-6 Y198A variant, recombinant, expressed in E. coli (protein, UniProt P55212 1-293, looked up, variant Y198A)
chain: MSSASGLRRGHPAGGEENMTETDAFYKREMFDPAEKYKMDHRRRGIALIFNHERFFWHLTLPERRGTCADRDNLTRRFSDLGFEVKCFNDLKAEELLLKIHEVSTVSHADADCFVCVFLSHGEGNHIYAYDAKIEIQTLTGLFKGDKCHSLVGKPKIFIIQACRGNQHDVPVIPLDVVDNQTEKLDTNITEVDAASVATLPAGADFLMCYSVAEGYYSHRETVNGSWYIQDLCEMLGKYGSSLEFTELLTLVNRKVSQRRVDFCKDPSAIGKKQVPCFASMLTKKLHFFPKSN
In the case of B1, the turnover number (kcat) (in general, the number of substrate molecules converted per active site and unit of time at saturation) with caspase-6 was determined as 2.84 ± 0.04 s⁻¹.
